According to ChEMBL document CHEMBL5576100, “Genome-Driven Discovery of Antiviral Atralabdans A-C from the Soil-Dwelling Streptomyces atratus” (J Nat Prod, 2024):
pEC50: −log10 of the molar value. Calls of active or inactive are those of the source. The rule behind the calls is not given here.

Key:
Pseudomonas sp. = experiment: Antimicrobial activity against Pseudomonas sp. assessed as zone of inhibition at 80 ug measured after 1 to 2 days by paper disk diffusion method; assay type: functional, organism-based; settings: dose 80.0 µg, time 1-2 day
Coxsackievirus B3 [1] = experiment: Antiviral activity against Coxsackievirus B3 infected in human Hep-2 cells assessed as inhibition of virus-induced cytopathic effect measured after 48 hrs by MTT assay relative to control; assay type: functional
Coxsackievirus B3 [2] = experiment: Antiviral activity against Coxsackievirus B3 infected in human Hep-2 cells assessed as protection against virus-induced apoptosis measured after 48 hrs by microscopic analysis; assay type: functional, organism-based
Micrococcus luteus = experiment: Antimicrobial activity against Micrococcus luteus assessed as zone of inhibition at 80 ug measured after 1 to 2 days by paper disk diffusion method; assay type: functional, organism-based; settings: dose 80.0 µg, time 1-2 day
Coxsackievirus B3 [3] = experiment: Antiviral activity against Coxsackievirus B3 infected in human Hep-2 cells assessed as protection against virus-induced pathological changes measured after 48 hrs by microscopic analysis; assay type: functional, organism-based
Staphylococcus aureus [4] = experiment: Antimicrobial activity against Staphylococcus aureus assessed as zone of inhibition at 80 ug measured after 1 to 2 days by paper disk diffusion method; assay type: functional; settings: time 1-2 day, read-out: IZ
Coxsackievirus B3 [5] = experiment: Antiviral activity against Coxsackievirus B3 infected in human Hep-2 cells assessed as log reduction in viral progeny yield measured after 48 hrs relative to control; assay type: functional
Staphylococcus aureus [6] = experiment: Potentiation of imipenem-induced antimicrobial activity against Staphylococcus aureus at 10 ug measured after 18 to 24 hrs in presence of 0.5 ug/ml imipenem by paper disk diffusion method; assay type: functional, organism-based; settings: dose 10.0 µg, time 18-24 hrs
Escherichia coli = experiment: Antimicrobial activity against Escherichia coli DH10B assessed as zone of inhibition at 80 ug measured after 1 to 2 days by paper disk diffusion method; assay type: functional, organism-based; settings: dose 80.0 µg, time 1-2 day
[7] = Selectivity index, ratio of CC50 for human Hep-2 cells to EC50 for antiviral activity against Coxsackievirus B3 infected in human Hep-2 cells; assay type: toxicity, cell-based; settings: read-out: Ratio CC50/EC50
Coxsackievirus B3 [8] = experiment: Antiviral activity against Coxsackievirus B3 infected in human Hep-2 cells assessed as inhibition of virus-induced cytopathic effect measured after 48 hrs by MTT assay; assay type: functional, organism-based; settings: Enterovirus B, HEp-2, 48 h
Serratia entomophila = experiment: Antimicrobial activity against Serratia entomophila DSM 12358 assessed as zone of inhibition at 80 ug measured after 1 to 2 days by paper disk diffusion method; assay type: functional, organism-based; settings: dose 80.0 µg, time 1-2 day
[9] = Cytotoxicity against Coxsackievirus B3 infected human Hep-2 cells assessed as reduction in cell viability measured after 48 hrs by MTT assay; assay type: toxicity, cell-based; settings: Coxsackievirus B3 infected Hep-2 cells
Saccharomyces cerevisiae = experiment: Antimicrobial activity against Saccharomyces cerevisiae assessed as zone of inhibition at 80 ug measured after 1 to 2 days by paper disk diffusion method; assay type: functional, organism-based; settings: dose 80.0 µg, time 1-2 day
Staphylococcus aureus [10] = experiment: Antimicrobial activity against Staphylococcus aureus assessed as diameter of zone of inhibition at 0.5 ug/ml measured after 18 to 24 hrs by paper disk diffusion method; assay type: functional; settings: time 18-24 hrs, read-out: DIZ
Staphylococcus aureus [11] = experiment: Antimicrobial activity against Staphylococcus aureus assessed as diameter of zone of inhibition at 0.25 ug/ml measured after 18 to 24 hrs by paper disk diffusion method; assay type: functional, organism-based; settings: dose 0.25 µg/ml, time 18-24 hrs

SMILES | inhibition zone (IZ) (Pseudomonas sp.) | Imax (Coxsackievirus B3 [1]) | Activity (Coxsackievirus B3 [2]) | inhibition zone (IZ) (Micrococcus luteus) | Activity (Coxsackievirus B3 [3]) | zone of inhibition at 80 µg/disc (Staphylococcus aureus [4]) | log(activity) (Coxsackievirus B3 [5]) | Activity (Staphylococcus aureus [6]) | inhibition zone (IZ) (Escherichia coli) | selectivity ratio [7] | pEC50 (Coxsackievirus B3 [8]) | inhibition zone (IZ) (Serratia entomophila) | CC50 at 48 h [9] | inhibition zone (IZ) (Saccharomyces cerevisiae) | zone of inhibition at 0.5 µg/mL (Staphylococcus aureus [10]) | diameter of the inhibition zone (DIZ) (Staphylococcus aureus [11])
C=C[C@@](C)(O)[C@H]1C[C@H]2C(=C)[C@@H]3C[C@H]4C(C)(C)CCC[C@]24[C@H]1O3 | inactive | 91.2% | Active | inactive | Active | ~1 mm | ~4.5 | inactive | inactive | 6.2 | 4.57 | inactive | 168 µM | inactive |  | 
C=C[C@@](C)(O)[C@@H]1C[C@H]2C(=C)[C@@H]3C[C@H]4C(C)(C)CCC[C@]24[C@H]1O3 | inactive | 90.1% | Active | inactive | Active | ~1 mm |  | inactive | inactive | 2 | 4.11 | inactive | 160 µM | inactive |  | 
NC(=O)c1ncn([C@@H]2O[C@H](CO)[C@@H](O)[C@H]2O)n1 [RIBAVIRIN] |  |  |  |  |  |  |  |  |  | 3.4 | 3.95 |  | 386 µM |  |  | 
C[C@@H](O)[C@H]1C(=O)N2C(C(=O)O)=C(SCCNC=N)C[C@H]12 [IMIPENEM ANHYDROUS] |  |  |  |  |  |  |  |  |  |  |  |  |  |  | ~2 mm | inactive
C=C[C@](C)(O)[C@H]1C[C@H]2C(=C)[C@@H]3C[C@H]4C(C)(C)CCC[C@]24[C@H]1O3 | inactive | 85.3% | Active | inactive | Active | ~1 mm |  | inactive | inactive | 3.8 | 4.37 | inactive | 161 µM | inactive |  | 
